Experimental data reported in patent US9567586B2, “EpCAM aptamer for detection of cancer stem cells” (DEAKIN UNIVERSITY, priority 2012, dated 2017).

How the values were obtained:
[1] = system: HEK293T sphere that does not express EpCAM; experiment: Penetration of HEK293T sphere (specificity); format: cell-based, human; details: 4 h incubation, further 24 h culture
Procedure: After four hour incubation with EpCAM antibody or aptamer 23 separately, the tumor spheres were washed twice with PBS and were cultured for a further 24 h followed by confocal microscopy. Panel A: fluorescence image for aptamer 23. Panel B: phase contrast for tumor sphere. Panel C: fluorescence image for anti-EpCAM antibody. Panel D: phase contrast image for tumour sphere.
To study the ability of EpCAM aptamer or antibody to penetrate tumors, the inventors used a three-dimensional in vitro tumor sphere model. […] After incubating for the indicated time, the spheres were washed twice with PBS and imaged via fluorescence confocal microscopy. A phase contrast image of the sphere was also taken for each sample. […] A retention study was performed whereby the tumour spheres were incubated with EpCAM antibody, aptamer-23 or control aptamer for 4 h, after washing with PBS twice, the tumor spheres were incubated with the culture medium for a further 24 h followed by confocal microscopy.

EpCAM = molecular target: T1, EpCAM (Homo sapiens, UniProt P16422); experiment: Immunofluorescence staining of paraffin embedded xenograft tumour sections; set-up: from tissue; host or cells: xenograft tumours of T47D, MCF7, MDA-MB-231, HT-29 and U118MG cells grown in BALB/c-Foxn1 nu mice, formalin-fixed and paraffin-embedded; key to Quantification of anti-EpCAM staining by immunofluorescence: ‘−’ no staining; ‘+’ faint incomplete staining in >10% of cells; ‘++’ moderate complete membrance staining; ‘+++’ strong complete membrance staining
T1 sequence (P16422 24-314): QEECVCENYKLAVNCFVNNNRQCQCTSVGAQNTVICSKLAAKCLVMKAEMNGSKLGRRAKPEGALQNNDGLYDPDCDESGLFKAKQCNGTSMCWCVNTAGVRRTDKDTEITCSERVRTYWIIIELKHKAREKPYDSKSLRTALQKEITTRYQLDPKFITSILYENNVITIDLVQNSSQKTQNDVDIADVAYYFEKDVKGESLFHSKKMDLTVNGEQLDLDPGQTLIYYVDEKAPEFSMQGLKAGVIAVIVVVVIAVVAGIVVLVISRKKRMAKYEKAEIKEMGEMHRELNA
Procedure: A: Immunofluorescence staining of breast cancer (T47D, MCF7 and MDA-MB-231), colon cancer (HT-29) and glioblastoma (U118MG) xenograft tumours by EpCAM aptamers, DT3 and 23, control aptamer and the anti-EpCAM antibody, 323/A3 (Blue: nuclei; Red: EpCAM positive staining). B: Immunohistochemistry was performed with the anti-EpCAM antibody BerEP4, and all tumours were evaluated by haematoxylin and eosin staining for morphological confirmation. Aptamer staining was performed for 15 min at 37° C., while 323/A3 staining was performed at 4° C. overnight and BerEP4 was performed at room temperature for 20 min. All fluorescent images were taken at 60×, while light microscopy images were taken at 20×. Images are representative of at least three separate experiments. Scale bar: 50 μm.
The cell lines of human origin used in this study were purchased from American type Culture Collection. They were glioblastoma U118-MG; breast carcinoma MCF-7, MDA-MB-231 and T47D; and colorectal adenocarcinoma HT-29. Cells were grown and maintained in culture with Dulbecco's Modified Eagle medium (DMEM) (Invitrogen, Victoria, Australia) supplemented with 10% fetal calf serum (MCF-7, T47D, HT-29, and U118-MG), or Roswell Park Memorial Institute 1640 (RPMI 1640) (Invitrogen) with 10% fetal calf serum (MDA-MB-231). Cells were maintained at 37 ^CC in a humidified atmosphere containing 5% CO2. For xenograft studies, single cell suspensions were harvested by trypsinisation, washed with PBS and resuspended in 0.1 mL of PBS for implantation in BALB/c-Foxn1 ^nu female mice. Once tumours had reached approximately […], they were excised and fixed in 10% neutral buffered formalin prior to processing and embedding. All animal procedures were approved by Deakin University Animal Welfare Committee, and in accordance with the Australian Code of Practice for the Care and Use of Animals for Scientific Purposes.
Sections from each of the xenograft tumours were cut at 4 μm onto polylysine coated slides prior to deparaffinisation with Histoclear and rehydration through graded ethanol. Heat induced antigen retrieval was performed in a microwave oven using Tris-EDTA buffer (10 mM Tris, 1 mM EDTA, 0.05% Tween 20, pH 9.0) for 20 min and the slides were allowed to cool prior to blocking with 0.1 mg/mL tRNA, 0.1 mg/mL salmon sperm DNA and 1 mg/mL bovine serum albumin (BSA) in phosphate buffered saline (PBS) for 20 min. Following the blocking step, slides were washed in PBS containing 0.1% Tween 20 twice for 2 min prior to incubation with either aptamer or antibody. Aptamers were prepared as previously described (Shigdar S et al, supra). Briefly, aptamers were heated to 85° C. for 5 min, allowed to cool to room temperature for 10 min and then heated at 37° C. for 15 min. Slides were incubated with aptamers at 100 nM concentration in a solution of PBS containing 5 mM MgCl2, 0.1 mg/mL tRNA, 1 mg/mL BSA, 10% dextran sulphate and 500 μg/mL heparin for 15 min at 37° C. The slides were then washed three times for 5 min each prior to incubation with Bisbenzimide Hoechst 33342 (3 μg/mL) for 10 min. Slides were then mounted using VECTASHIELD and coverslipped prior to visualisation using a Fluoview FV10i laser scanning confocal microscope. All images used for direct comparison were taken with identical exposure parameters and are presented without any digital contrast alteration or background subtraction. Antibody staining was performed using the anti-EpCAM antibody 323/A3 (ab8601, Abcam). Slides were washed and blocked following the same protocol as previously described prior to antibody staining. The antibody was prepared at a concentration of 10 μg/mL and the slides were incubated overnight at 4° C. Slides were then washed three times for 5 min followed by incubation with a goat-anti-mouse IgG AlexaFluor 647 conjugate (Invitrogen) at a concentration of 10 μg/mL for 2 h prior to washing, staining with Bisbenzimide Hoechst 33342, and coverslipping. […]

5′-ACGUAUCCCUUUUCGCGUA-3′ (RNA aptamer, fluorescent dye conjugate used, modifications not given here, further chemistry not given here) [compound 23]
binding to HEK293T sphere [1]: minimal binding | staining of HT-29 xenograft sections (in words) (EpCAM; HT-29 colorectal cancer xenograft): strong positive staining | Quantification of anti-EpCAM staining by immunofluorescence (EpCAM; HT-29 xenograft): +++ | Quantification of anti-EpCAM staining by immunofluorescence (EpCAM; MCF7 xenograft): ++ | Quantification of anti-EpCAM staining by immunofluorescence (EpCAM; MDA-MB-231 xenograft): + (‘+’ faint incomplete staining in >10% of cells) | detection of EpCAM in MDA-MB-231 xenograft tumour (in words) (EpCAM; MDA-MB-231 xenograft, low EpCAM expression): successfully detect EpCAM | Quantification of anti-EpCAM staining by immunofluorescence (EpCAM; T47D xenograft): +++ | staining of human breast cancer xenografts (in words) (EpCAM; T47D, MCF7 and MDA-MB-231 xenografts, 100 nM, 15 min, 37° C., dextran sulphate and heparin): highly sensitive staining

5′-DY647-mGCmGACUmGmGUUmACCCmGmGUCmGdT-3′ (GCGACUGGUUACCCGGUCGN; 5' DY647, 2'-O-methyl, 3' dT, further chemistry not given here) [Control]
Quantification of anti-EpCAM staining by immunofluorescence (EpCAM; HT-29 xenograft): − | Quantification of anti-EpCAM staining by immunofluorescence (EpCAM; MCF7 xenograft): − | Quantification of anti-EpCAM staining by immunofluorescence (EpCAM; MDA-MB-231 xenograft): − | Quantification of anti-EpCAM staining by immunofluorescence (EpCAM; T47D xenograft): −
